Measurements published in patent US8344008B2 (Janssen Pharmaceutica NV, priority 2007, dated 2013).

Each molecule was assayed against T1, recombinant human LTA4 hydrolase (rhLTA4H) (Homo sapiens, UniProt P09960) (assay: Recombinant Human LTA4 Hydrolase Assay for LTA4 Hydrolase Inhibitor Activity). Conditions: average of results obtained; LTB4 quantified by enzyme-linked immunoassay.
T1 construct: made in house; host or cells: Spodoptera frugiperda (Sf-9) cells, baculovirus (pFastBac1)
T1 sequence (P09960 1-611): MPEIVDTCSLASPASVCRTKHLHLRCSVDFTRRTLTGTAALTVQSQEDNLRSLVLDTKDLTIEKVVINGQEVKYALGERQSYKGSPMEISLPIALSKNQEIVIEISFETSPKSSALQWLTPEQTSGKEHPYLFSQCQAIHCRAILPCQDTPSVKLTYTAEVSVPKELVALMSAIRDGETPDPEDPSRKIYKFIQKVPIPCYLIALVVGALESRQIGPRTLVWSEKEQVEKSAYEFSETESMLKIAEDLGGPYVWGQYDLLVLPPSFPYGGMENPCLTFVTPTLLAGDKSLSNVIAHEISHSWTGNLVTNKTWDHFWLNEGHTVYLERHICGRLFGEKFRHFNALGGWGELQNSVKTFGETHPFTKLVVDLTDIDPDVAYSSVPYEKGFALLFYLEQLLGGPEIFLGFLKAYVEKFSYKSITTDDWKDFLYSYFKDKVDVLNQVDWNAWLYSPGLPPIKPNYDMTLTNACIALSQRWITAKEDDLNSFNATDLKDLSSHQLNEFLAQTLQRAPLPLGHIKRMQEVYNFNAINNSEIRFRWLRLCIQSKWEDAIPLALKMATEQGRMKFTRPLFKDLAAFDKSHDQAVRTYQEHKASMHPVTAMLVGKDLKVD
Assay type: biochemical
Summary of the method: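 LTB4 formation, quantified by EIA after 10 min at rt, was the read-out once 9 ng LTA4 (free acid) was added to recombinant human enzyme (36 ng, Sf-9 expressed) that had sat 10 min with compound. Buffer: 0.1 M potassium phosphate pH 7.4 with fatty-acid-free BSA; IC50 by 4-parameter fit.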
`NC(=O)N1C[C@H]2C[C@@H]1CN2CCOc1ccc(Oc2nc3cc(Cl)ccc3s2)cc1` [Example 176, (R,R)-5-{2-[4-(5-Chloro-benzothiazol-2-yloxy)-phenoxy]-ethyl}-2,5-diaza-bicyclo[2.2.1]heptane-2-carboxylic acid amide] showed a Ki of 431 nM.
Work on `CS(=O)(=O)N1[C@@H]2CC[C@H]1C[C@@H](NCCOc1ccc(Oc3nc4cc(F)ccc4s3)cc1)C2` [Example 233, meso-endo-{2-[4-(5-Fluoro-benzothiazol-2-yloxy)-phenoxy]-ethyl}-(8-methanesulfonyl-8-aza-bicyclo[3.2.1]oct-3-yl)-amine] yielded a Ki of 225 nM.
With `CC(=O)N1[C@@H]2CC[C@H]1C[C@H](NCCOc1ccc(Oc3nc4ccc(Cl)cc4s3)cc1)C2` [Example 268, meso-exo-1-(3-{2-[4-(6-Chloro-benzothiazol-2-yloxy)-phenoxy]-ethylamino}-8-aza-bicyclo[3.2.1]oct-8-yl)-ethanone] the Ki was 360 nM.
In the case of `CS(=O)(=O)N1CC2CCC(C1)N2CCOc1ccc(Oc2nc3cccc(F)c3s2)cc1` [Example 211, meso-7-Fluoro-2-{4-[2-(3-methanesulfonyl-3,8-diaza-bicyclo[3.2.1]oct-8-yl)-ethoxy]-phenoxy}-benzothiazole], the Ki is reported as 159 nM.
`NC(=O)N[C@H]1C[C@H]2CC[C@@H](C1)N2CCOc1ccc(Oc2nc3c(F)cccc3s2)cc1` [Example 262, meso-endo-(8-{2-[4-(4-Fluoro-benzothiazole-2-yloxy)-phenoxy]-ethyl}-8-aza-bicyclo[3.2.1]oct-3-yl)-urea] was tested, and the Ki was 12 nM.
In the case of `CC(=O)N[C@H]1C[C@H]2CC[C@@H](C1)N2Cc1ccc(Oc2nc3c(Cl)cccc3s2)cc1` [Example 71, meso-endo-N-{8-[4-(4-Chloro-benzothiazol-2-yloxy)-benzyl]-8-aza-bicyclo[3.2.1]oct-3-yl}-acetamide], the Ki is reported as 25 nM.
`NC(=O)N1C[C@H]2C[C@@H]1CN2CCc1ccc(Oc2nc3ccccc3s2)cc1` [Example 280, (R,R)-5-{2-[4-(Benzothiazol-2-yloxy)-phenyl]-ethyl}-2,5-diaza-bicyclo[2.2.1]heptane-2-carboxylic acid amide] was tested, and the Ki was 11 nM.
Molecule `NC(=O)N1C2CCC1CN(Cc1ccc(Oc3nc4ccccc4s3)cc1)C2` [Example 59, meso-3-[4-(Benzothiazol-2-yloxy)-benzyl]-3,8-diaza-bicyclo[3.2.1]octane-8-carboxylic acid amide] has a Ki of 174 nM.
`O=C(CO)N1CCC2CN(Cc3ccc(Oc4nc5ccccc5s4)cc3)CC2C1` (centres unmarked) [Example 116, 1-{2-[4-(Benzothiazol-2-yloxy)-benzyl]-octahydro-pyrrolo[3,4-c]pyridin-5-yl}-2-hydroxy-ethanone] gave a Ki of 13 nM.
`CCOC(=O)CN1CC2CN(Cc3ccc(Oc4nc5ccccc5s4)cc3)CC2C1` (centres unmarked) [Example 155, {5-[4-(Benzothiazol-2-yloxy)-benzyl]-hexahydro-pyrrolo[3,4-c]pyrrol-2-yl}-acetic acid ethyl ester] gave a Ki of 170 nM.
`CC(C)(C)OC(=O)CN1C[C@@H]2C[C@H]1CN2Cc1ccc(Oc2nc3ccccc3s2)cc1` [Example 50, (S,S)-{5-[4-(Benzothiazol-2-yloxy)-benzyl]-2,5-diaza-bicyclo[2.2.1]hept-2-yl}-acetic acid tert-butyl ester] gave a Ki of 9 nM.
With `Cc1ccc2nc(Oc3ccc(CN4[C@@H]5CC[C@H]4C[C@H](NS(C)(=O)=O)C5)cc3)sc2c1` [Example 200, meso-exo-N-{8-[4-(6-Methyl-benzothiazol-2-yloxy)-benzyl]-8-aza-bicyclo[3.2.1]oct-3-yl}-methanesulfonamide] the Ki was 65 nM.
With `CC(=O)N1C[C@H]2C[C@@H]1CN2Cc1ccc(Oc2nc3c(Cl)cccc3s2)cc1` [Example 164, (R,R)-1-{5-[4-(4-Chloro-benzothiazol-2-yloxy)-benzyl]-2,5-diaza-bicyclo[2.2.1]hept-2-yl}-ethanone] the Ki was 417 nM.
`NCC(=O)N[C@H]1C[C@H]2CC[C@@H](C1)N2Cc1ccc(Oc2nc3ccccc3s2)cc1` [Example 56, meso-endo-2-Amino-N-{8-[4-(benzothiazol-2-yloxy)-benzyl]-8-aza-bicyclo[3.2.1]oct-3-yl}-acetamide] gave a Ki of 30 nM.
In the case of `NC(=O)N[C@H]1C[C@H]2CC[C@@H](C1)N2Cc1ccc(Oc2nc3cc(Cl)ccc3s2)cc1` [Example 259, meso-endo-{8-[4-(5-Chloro-benzothiazol-2-yloxy)-benzyl]-8-aza-bicyclo[3.2.1]oct-3-yl}-urea], the Ki is reported as 58 nM.
With `CC(=O)N[C@@H]1C[C@H]2CC[C@@H](C1)N2Cc1ccc(Oc2nc3cc(Cl)ccc3s2)cc1` [Example 276, meso-exo-N-{8-[4-(5-Chloro-benzothiazol-2-yloxy)-benzyl]-8-aza-bicyclo[3.2.1]oct-3-yl}-acetamide] the Ki was 38 nM.
Molecule `CS(=O)(=O)N1C[C@H]2C[C@@H]1CN2CCOc1ccc(Oc2nc3cc(F)ccc3s2)cc1` [Example 168, (R,R)-5-Fluoro-2-{4-[2-(5-methanesulfonyl-2,5-diaza-bicyclo[2.2.1]hept-2-yl)-ethoxy]-phenoxy}-benzothiazole] has a Ki of 128 nM.
`CC(=O)N[C@H]1C[C@H]2CC[C@@H](C1)N2Cc1ccc(Oc2nc3ccc(C)cc3s2)cc1` [Example 73, meso-endo-N-{8-[4-(6-Methyl-benzothiazol-2-yloxy)-benzyl]-8-aza-bicyclo[3.2.1]oct-3-yl}-acetamide] was tested, and the Ki was 33 nM.
`CC(=O)N1[C@@H]2CC[C@H]1C[C@H](NCc1ccc(Oc3nc4cccc(Cl)c4s3)cc1)C2` [Example 166, meso-exo-1-{3-[4-(7-Chloro-benzothiazol-2-yloxy)-benzylamino]-8-aza-bicyclo[3.2.1]oct-8-yl}-ethanone] gave a Ki of 1900 nM.
`CC(=O)N[C@H]1C[C@H]2CC[C@@H](C1)N2CCOc1ccc(Oc2nc3ccc(C)cc3s2)cc1` [Example 271] was tested, and the Ki was 79 nM.
Work on `NC(=O)N1CC2CN(Cc3ccc(Oc4nc5ccccc5s4)cc3F)CC2C1` (centres unmarked) [Example 159, 5-[4-(Benzothiazol-2-yloxy)-2-fluoro-benzyl]-hexahydro-pyrrolo[3,4-c]pyrrole-2-carboxylic acid amide] yielded a Ki of 110 nM.
`NC(=O)N1CC2CCC(C1)N2Cc1ccc(Oc2nc3ccccc3s2)cc1F` [Example 76, meso-8-[4-(Benzothiazol-2-yloxy)-2-fluoro-benzyl]-3,8-diaza-bicyclo[3.2.1]octane-3-carboxylic acid amide] was tested, and the Ki was 195 nM.
In the case of `O=C(CO)N1C[C@H]2C[C@@H]1CN2Cc1ccc(Oc2nc3ccccc3s2)cc1` [Example 44, (R,R)-1-{5-[4-(Benzothiazol-2-yloxy)-benzyl]-2,5-diaza-bicyclo[2.2.1]hept-2-yl}-2-hydroxy-ethanone], the Ki is reported as 38 nM.
Work on `O=C(C1CCOC1)N1CC2CN(Cc3ccc(Oc4nc5ccccc5s4)cc3)CC2C1` (centres unmarked) [Example 102, {5-[4-(Benzothiazol-2-yloxy)-benzyl]-hexahydro-pyrrolo[3,4-c]pyrrol-2-yl}-(tetrahydro-furan-3-yl)-methanone] yielded a Ki of 46 nM.
`COCC(=O)N1C[C@@H]2C[C@H]1CN2CCc1cccc(Oc2nc3ccccc3s2)c1` [Example 43] gave a Ki of 442 nM.
Work on `CS(=O)(=O)N1C[C@H]2C[C@@H]1CN2CCc1ccc(Oc2nc3cccc(Cl)c3s2)cc1` [Example 192, (R,R)-7-Chloro-2-{4-[2-(5-methanesulfonyl-2,5-diaza-bicyclo[2.2.1]hept-2-yl)-ethyl]-phenoxy}-benzothiazole] yielded a Ki greater than 10000 nM.
`CC(=O)N1C[C@H]2C[C@@H]1CN2CCc1ccc(Oc2nc3cc(F)ccc3s2)cc1` [Example 235, (R,R)-1-(5-{2-[4-(5-Fluoro-benzothiazol-2-yloxy)-phenyl]-ethyl}-2,5-diaza-bicyclo[2.2.1]hept-2-yl)-ethanone] showed a Ki of 23 nM.
With `COC(=O)CCCN1CC2CN(Cc3ccc(Oc4nc5ccccc5s4)cc3)CC2C1` (centres unmarked) [Example 156, 4-{5-[4-(Benzothiazol-2-yloxy)-benzyl]-hexahydro-pyrrolo[3,4-c]pyrrol-2-yl}-butyric acid methyl ester] the Ki was 47 nM.
`CS(=O)(=O)N1CC2CCC(C1)N2CCOc1ccc(Oc2nc3ccc(Cl)cc3s2)cc1` [Example 169, meso-6-Chloro-2-{4-[2-(3-methanesulfonyl-3,8-diaza-bicyclo[3.2.1]oct-8-yl)-ethoxy]-phenoxy}-benzothiazole] gave a Ki of 693 nM.
`O=C(N1C[C@@H]2C[C@H]1CN2CCc1cccc(Oc2nc3ccccc3s2)c1)C1(O)CC1` [Example 18, (S,S)-(5-{2-[3-(Benzothiazol-2-yloxy)-phenyl]-ethyl}-2,5-diaza-bicyclo[2.2.1]hept-2-yl)-(1-hydroxy-cyclopropyl)-methanone] showed a Ki of 66 nM.
Molecule `O=C([C@H]1CCCO1)N1CC2CN(Cc3ccc(Oc4nc5ccccc5s4)cc3)CC2C1` (stereo partly drawn) [Example 100, (R)-{5-[4-(Benzothiazol-2-yloxy)-benzyl]-hexahydro-pyrrolo[3,4-c]pyrrol-2-yl}-(tetrahydro-furan-2-yl)-methanone] has a Ki of 168 nM.
`CC(=O)N1CC2CN(CCOc3ccc(Oc4nc5ccccc5s4)cc3)CC2C1` (centres unmarked) [Example 94, 1-(5-{2-[4-(Benzothiazol-2-yloxy)-phenoxy]-ethyl}-hexahydro-pyrrolo[3,4-c]pyrrol-2-yl)-ethanone] gave a Ki of 12 nM.
